Results: US11377425B1, “Small molecule modulators of IL-17” (LEO Pharma A/S, priority 2018, dated 2022)

Molecular target: T1, human IL-17AA (Homo sapiens, UniProt Q16552)
T1 construct: host or cells: HEK (human embryonic kidney) cells
T1 sequence (Q16552 24-155): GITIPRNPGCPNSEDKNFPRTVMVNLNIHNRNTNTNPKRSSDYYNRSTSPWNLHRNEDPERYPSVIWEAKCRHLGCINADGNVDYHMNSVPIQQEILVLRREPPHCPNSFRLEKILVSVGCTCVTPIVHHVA
Experiment: IL-8 release assay in human epithelial keratinocytes adult (HEKa)
Format: cell-based
Conditions: HEKa cells, 3 ng/mL HEK-human IL-17AA + 10 ng/mL human TNFalpha; read-out: Rel EC50 IL-8 release assay
Method: Example 138: IL-8 Release Assay in Human Epithelial Keratinocytes Adult (HEKa)
Keratinocytes were seeded at 3500 cells/well in 384-well ViewPlates (Perkin Elmer) in Epilife medium (Thermo Fisher) containing human keratinocyte growth supplement (HKGS) without hydrocortisone and incubated in a humid incubator at 37° C. 5% CO2, overnight. The following day growth medium was removed and 25 μl fresh Epilife medium added. 75 nL test compound in 100% DMSO was added into each well reserved for test compounds, by the use of acoustic pipetting. The remaining wells received an equal volume of DMSO only, as vehicle control, or terfenadine in DMSO, as a positive control for any cytotoxic compounds. Subsequently, another 25 μL Epilife medium was added to each well. Finally, wells containing test compounds and wells prepared to yield maximum stimulation received […] of 9 ng/mL recombinant, human embryonic kidney cell (HEK)-derived human IL-17AA+30 ng/mL human TNF-alpha, in Epilife medium. Wells prepared to define 100% inhibition of IL-17 effects received 25 μL of 30 ng/mL human TNF-alpha alone, in Epilife medium. Final concentrations were 3 ng/mL HEK-human IL-17AA+10 ng/mL human TNFalpha (maximum stimulation) and 10 ng/mL human TNFalpha alone (100% inhibition, Emax), respectively. Cells were incubated for 68-72 hours in the incubator. IL-8 released from the cells was measured by the use of a commercial homogenous time-resolved fluorescence (HTRF) assay (CisBio). 2 μL cell culture supernatant was transferred to a 384-well Proxiplate. 5 μL HTRF reagent was added and the plates incubated sealed in the dark for 3-22 hours at room temperature. Time-resolved fluorescence was read at 665 vs 620 nm, with excitation at 320 nm, and IL-8 levels calculated as percent of controls. Reduction of the amount of secreted IL-8 indicates decreased IL-17 signaling. Concentration response curves were fitted by the use of a four-parameter logistic equation. Relative IC50 and Emax were reported from curves showing acceptable fit (r^2>0.9). Cytotoxicity was measured in the cell-containing Viewplates following addition of 7 μL PrestoBlue (Thermo Fisher) and incubation for 2.5-3 hours at room temperature, by measuring fluorescence at 615 nm (excitation at 535 nm). Fluorescence was directly proportional to the amount of metabolic activity. Reduction of fluorescence signal indicated cytotoxicity.
Compounds of the present invention were tested in the IL-8 release assay in human epithelial keratinocytes.
Compounds having a Relative EC50 of X; wherein X<100 nM; are indicated with *
Compounds having a Relative EC50 of X; wherein 100 nM<X<1000 nM; are indicated with **
Compounds having a Relative EC50 of X; wherein 1000 nM<X; are indicated with ***

Row | EC50 [nM] | Compound
1 | > 1000 | Cc1n[nH]c(C)c1-c1ccc(NC(=O)C(NC(=O)c2ccnn2[C@@H](C)CO)C2CCCCCCC2)cc1 (single isomer, unassigned) [Example 150]
2 | < 100 | Cc1n[nH]c(C)c1-c1ccc(NC(=O)C(NC(=O)c2ccnn2[C@@H](C)CO)C2CCCCCCC2)cc1 (single isomer, unassigned) [Example 151]
3 | < 100 | Cc1n[nH]c(C)c1-c1ccc(NC(=O)C(NC(=O)c2ccnn2C(C)C)C2CCCCCCC2)cc1 (single isomer, unassigned) [Example 152, N-[1-cyclooctyl-2-[4-(3,5-dimethyl-1H-pyrazol-4-yl)anilino]-2-oxo-ethyl]-2-(1-methylethyl)pyrazole-3-carboxamide]
4 | 100 to 1000 | Cc1n[nH]c(C)c1-c1ccc(NC(=O)C(NC(=O)c2ccnn2C(C)C)C2CCCCCCC2)cc1 (single isomer, unassigned) [Example 153, N-[1-cyclooctyl-2-[4-(3,5-dimethyl-1H-pyrazol-4-yl)anilino]-2-oxo-ethyl]-2-(1-methylethyl)pyrazole-3-carboxamide]
5 | 100 to 1000 | CCn1nccc1C(=O)NC(C(=O)Nc1ccc(-c2c(C)n[nH]c2C)cc1)C1CCCCCCC1 (single isomer, unassigned) [Example 154, N-[1-cyclooctyl-2-[4-(3,5-dimethyl-1H-pyrazol-4-yl)anilino]-2-oxo-ethyl]-2-ethyl-pyrazole-3-carboxamide]
6 | < 100 | CCn1nccc1C(=O)NC(C(=O)Nc1ccc(-c2c(C)n[nH]c2C)cc1)C1CCCCCCC1 (single isomer, unassigned) [Example 155, N-[1-cyclooctyl-2-[4-(3,5-dimethyl-1H-pyrazol-4-yl)anilino]-2-oxo-ethyl]-2-ethyl-pyrazole-3-carboxamide]
7 | < 100 | Cc1n[nH]c(C)c1-c1ccc(NC(=O)C(NC(=O)c2ccnn2C)C2CCCCCCC2)cc1 (single isomer, unassigned) [Example 156, N-[1-cyclooctyl-2-[4-(3,5-dimethyl-1H-pyrazol-4-yl)anilino]-2-oxo-ethyl]-2-methyl-pyrazole-3-carboxamide]
8 | > 1000 | Cc1n[nH]c(C)c1-c1ccc(NC(=O)C(NC(=O)c2ccnn2C)C2CCCCCCC2)cc1 (single isomer, unassigned) [Example 157, N-[1-cyclooctyl-2-[4-(3,5-dimethyl-1H-pyrazol-4-yl)anilino]-2-oxo-ethyl]-2-methyl-pyrazole-3-carboxamide]
9 | 100 to 1000 | Cc1n[nH]c(C)c1-c1ccc(NC(=O)[C@@H](NC(=O)c2ccnn2C)C(C)CC2CC2)cc1 (single isomer, unassigned) [Example 159]
10 | 100 to 1000 | Cc1n[nH]c(C)c1-c1ccc(NC(=O)[C@@H](NC(=O)c2ccnn2C)C(C)CC2CC2)cc1 (single isomer, unassigned) [Example 160]
11 | 100 to 1000 | Cc1n[nH]c(C)c1-c1ccc(NC(=O)[C@@H](NC(=O)c2ccnn2[C@H](C)CO)C(C)C2CCC2)cc1 (single isomer, unassigned) [Example 164]
12 | 100 to 1000 | Cc1n[nH]c(C)c1-c1ccc(NC(=O)[C@@H](NC(=O)c2ccnn2[C@H](C)CO)C(C)C2CCC2)cc1 (single isomer, unassigned) [Example 165]
13 | < 100 | Cc1n[nH]c(C)c1-c1ccc(NC(=O)[C@@H](NC(=O)c2ccnn2[C@@H](C)CO)C(C)C2CCC2)cc1 (single isomer, unassigned) [Example 173]
14 | 100 to 1000 | Cc1n[nH]c(C)c1-c1ccc(NC(=O)[C@@H](NC(=O)c2ccnn2[C@@H](C)CO)C(C)C2CCC2)cc1 (single isomer, unassigned) [Example 174]
15 | 100 to 1000 | Cc1n[nH]c(C)c1-c1ccc(NC(=O)[C@@H](NC(=O)c2ccnn2C(C)CO)C(C)C(C)(C)C)cc1 (single isomer, unassigned) [Example 175]
16 | 100 to 1000 | Cc1n[nH]c(C)c1-c1ccc(NC(=O)[C@@H](NC(=O)c2ccnn2C(C)CO)C(C)C(C)(C)C)cc1 (single isomer, unassigned) [Example 176]
17 | 100 to 1000 | Cc1n[nH]c(C)c1-c1ccc(NC(=O)[C@@H](NC(=O)c2ccnn2C(C)CO)C(C)C(C)(C)C)cc1 (single isomer, unassigned) [Example 177]
18 | < 100 | Cc1n[nH]c(C)c1-c1ccc(NC(=O)[C@@H](NC(=O)c2ccnn2C(C)CO)C(C)C(C)(C)C)cc1 (single isomer, unassigned) [Example 178]
19 | < 100 | Cc1n[nH]c(C)c1-c1ccc(NC(=O)[C@@H](NC(=O)c2ccnn2C(C)CO)C2C3CC4CC(C3)CC2C4)cc1 (single isomer, unassigned) [Example 187]

Row | EC50 [nM] | Compound
20 | < 100 | Cc1n[nH]c(C)c1-c1ccc(NC(=O)[C@@H](NC(=O)c2ccnn2C(C)CO)C2C3CC4CC(C3)CC2C4)cc1 (single isomer, unassigned) [Example 188]
21 | < 100 | Cc1n[nH]c(C)c1-c1ccc(NC(=O)[C@@H](NC(=O)c2ccnn2C(C)C)C(C)C2CCC2)cc1 (single isomer, unassigned) [Example 190]
22 | 100 to 1000 | Cc1n[nH]c(C)c1-c1ccc(NC(=O)[C@@H](NC(=O)c2ccnn2C(C)C)C(C)C2CCC2)cc1 (single isomer, unassigned) [Example 191]
23 | < 100 | CCn1nccc1C(=O)N[C@H](C(=O)Nc1ccc(-c2c(C)n[nH]c2C)cc1)C(C)C1CCC1 (single isomer, unassigned) [Example 192]
24 | 100 to 1000 | CCn1nccc1C(=O)N[C@H](C(=O)Nc1ccc(-c2c(C)n[nH]c2C)cc1)C(C)C1CCC1 (single isomer, unassigned) [Example 193]
25 | < 100 | Cc1n[nH]c(C)c1-c1ccc(NC(=O)[C@@H](NC(=O)c2ccnn2C)C(C)C2CCC2)cc1 (single isomer, unassigned) [Example 194]
26 | 100 to 1000 | Cc1n[nH]c(C)c1-c1ccc(NC(=O)[C@@H](NC(=O)c2ccnn2C)C(C)C2CCC2)cc1 (single isomer, unassigned) [Example 195]
27 | < 100 | Cc1n[nH]c(C)c1-c1ccc(NC(=O)[C@@H](NC(=O)c2ccnn2C(C)CO)[C@H]2CC[C@H](C)CC2)cc1 (single isomer, unassigned) [Example 204]
28 | < 100 | Cc1n[nH]c(C)c1-c1ccc(NC(=O)[C@@H](NC(=O)c2ccnn2C(C)CO)[C@H]2CC[C@H](C)CC2)cc1 (single isomer, unassigned) [Example 205]
29 | < 100 | Cc1n[nH]c(C)c1-c1ccc(NC(=O)[C@@H](NC(=O)c2ccnn2C(C)CO)[C@@H]2CC(C)(C)CCC2(F)F)cc1 (single isomer, unassigned) [Example 210]
30 | < 100 | Cc1n[nH]c(C)c1-c1ccc(NC(=O)[C@@H](NC(=O)c2ccnn2C(C)CO)[C@@H]2CC(C)(C)CCC2(F)F)cc1 (single isomer, unassigned) [Example 211]
31 | > 1000 | Cc1n[nH]c(C)c1-c1ccc(NC(=O)[C@@H](NC(=O)c2ccnn2C)C2CC23CCC3)cc1 (single isomer, unassigned) [Example 223]
32 | > 1000 | Cc1n[nH]c(C)c1-c1ccc(NC(=O)[C@@H](NC(=O)c2ccnn2C)C2CC2(C)C)cc1 (single isomer, unassigned) [Example 224]
33 | < 100 | Cc1n[nH]c(C)c1-c1ccc(NC(=O)[C@@H](NC(=O)c2ccnn2C(C)CCO)C(C2CC2)C2CC2)cc1 (single isomer, unassigned) [Example 225]
34 | < 100 | Cc1n[nH]c(C)c1-c1ccc(NC(=O)[C@@H](NC(=O)c2ccnn2C(C)CCO)C(C2CC2)C2CC2)cc1 (single isomer, unassigned) [Example 226]
35 | > 1000 | CCC(c1ccccc1)C(NC(=O)c1ccnn1C)C(=O)Nc1ccc(-c2c(C)n[nH]c2C)cc1 (single isomer, unassigned) [Example 227]
36 | 100 to 1000 | CCC(c1ccccc1)C(NC(=O)c1ccnn1C)C(=O)Nc1ccc(-c2c(C)n[nH]c2C)cc1 (single isomer, unassigned) [Example 228]
37 | 100 to 1000 | Cc1n[nH]c(C)c1-c1ccc(NC(=O)[C@@H](NC(=O)c2ccnn2C)C2CCC2(C)C)cc1 (single isomer, unassigned) [Example 232]
38 | 100 to 1000 | Cc1n[nH]c(C)c1-c1ccc(NC(=O)C(NC(=O)c2ccnn2C)[C@@H](C)c2ccccc2)cc1 (single isomer, unassigned) [Example 234]
